Data taken from patent US20190151329A1, “THERAPEUTIC USE OF DIAMINOPHENOTHIAZINES” (WisTa Laboratories Ltd., priority 2007, published 2019).
“And” between values parts separate entries of the source, which are not always exact repeats. Identical values can stand only once. Like-named read-outs stand apart in the source and are kept apart here.

What was measured:
[1] = cited from earlier work; for Blood Ox-MT concentration: human whole blood
[2] = cited from earlier work
[3] = Pig single oral dose pharmacokinetic study (blood and brain); type: in vivo, pigs; conditions: single oral 20 mg/kg
Experimental: Finally, a comparison was made between the compartment predictions and the results from an oral study in which pigs were administered a single 20 mg/kg dose, and brain levels of MT were determined. […] Blood (0.5, 1, 2, 4, 8, 12, 24 and 48 h) and urine (1, 2, 3, 4, 5, 6, 7, 8, 12, and 24 h) were collected at regular timepoints up to 48 hrs. Two animals were sacrificed at each of 1, 8, 24 and 48 h post dose and brain samples retained. Pharmacokinetic evaluation of the free base of MTC was performed on whole blood and brain tissue samples. Two batches of brain tissue sample were extracted for each animal and analysed essentially as described by Peter et al (2000).
Brain tissue (500 mg) was vortexed and then extracted with dichloroethane (5 ml) and the organic phase taken to dryness under nitrogen. The extract was taken up with methanol and separated by reverse-phase HPLC with ultraviolet detection.

[4] = rats; IV; within 2 minutes; cited from earlier work
[5] = cited from earlier work; for L-MT urinary excretion rate / Ox-MT urinary excretion rate: 10 mg MTC oral
[6] = repeat dose 15 mg/24 hr, day 14
[7] = repeat dose 15 mg/24 hr, day 21
[8] = repeat dose 300 mg/24 hr, day 7
[9] = repeat dose 300 mg/24 hr, day 14
[10] = repeat dose 300 mg/24 hr, day 21
[11] = human, time 0.5 hr (mid-time 0.25 hr)
[12] = human, time 1 hr (mid-time 0.75 hr)
[13] = human, time 2 hr (mid-time 1.5 hr)
[14] = human, time 3 hr (mid-time 2.5 hr)
[15] = human, time 4 hr (mid-time 3.5 hr)
[16] = human, time 6 hr (mid-time 5 hr)
[17] = human, time 9 hr (mid-time 7.5 hr)
[18] = human, time 24 hr (mid-time 16.5 hr)
[19] = human, time 33 hr (mid-time 28.5 hr)
[20] = human, time 48 hr (mid-time 40.5 hr)
[21] = human, time 57 hr (mid-time 52.5 hr)
[22] = human, time 72 hr (mid-time 64.5 hr)
[23] = human, time 81 hr (mid-time 76.5 hr)
[24] = human, time 96 hr (mid-time 88.5 hr)
[25] = human, time 105 hr (mid-time 100.5 hr)
[26] = human, time 120 hr (mid-time 112.5 hr)
[27] = human, 10 mg oral, non-compartmental secondary parameter
[28] = human, 10 mg oral, urinary excretion data

half-life ([3]; brain, read-out: terminal elimination half-life, brain (converted)): 23.5 h
half-life ([3]; whole blood, read-out: terminal elimination half-life, blood (converted)): 23.5 h
Structure (SMILES): CN(C)c1ccc2nc3ccc(=[N+](C)C)cc-3sc2c1 [MTC, methylthioninium chloride]
terminal elimination half-life deduced by Peter et al. ([1]; from analysis of blood concentration data): 5.5 to 6.3 h
Blood Ox-MT concentration ([1]; 100 mg MTC IV, 0.09 hr): 6.06 µmol/L
Blood Ox-MT concentration ([1]; 100 mg MTC IV, 0.15 hr): 3.32 µmol/L
Blood Ox-MT concentration ([1]; 100 mg MTC IV, 0.24 hr): 1.73 µmol/L
Blood Ox-MT concentration ([1]; 100 mg MTC IV, 0.33 hr): 1.65 µmol/L
Blood Ox-MT concentration ([1]; 100 mg MTC IV, 0.5 hr): 0.78 µmol/L
Blood Ox-MT concentration ([1]; 100 mg MTC IV, 0.65 hr): 0.61 µmol/L
Blood Ox-MT concentration ([1]; 100 mg MTC IV, 0.83 hr): 0.39 µmol/L
Blood Ox-MT concentration ([1]; 100 mg MTC IV, 1.01 hr): 0.41 µmol/L
Blood Ox-MT concentration ([1]; 100 mg MTC IV, 1.99 hr): 0.26 µmol/L
Blood Ox-MT concentration ([1]; 100 mg MTC IV, 4 hr): 0.18 µmol/L
Blood Ox-MT concentration ([1]; 100 mg MTC oral (mean of with and without Mesna), 0 hr): 0 µmol/L
Blood Ox-MT concentration ([1]; 100 mg MTC oral (mean of with and without Mesna), 0.09 hr): 0.00064 µmol/L
Blood Ox-MT concentration ([1]; 100 mg MTC oral (mean of with and without Mesna), 0.15 hr): 0.0011 µmol/L
Blood Ox-MT concentration ([1]; 100 mg MTC oral (mean of with and without Mesna), 0.24 hr): 0.0064 µmol/L
Blood Ox-MT concentration ([1]; 100 mg MTC oral (mean of with and without Mesna), 0.33 hr): 0.017 µmol/L
Blood Ox-MT concentration ([1]; 100 mg MTC oral (mean of with and without Mesna), 0.5 hr): 0.041 µmol/L
Blood Ox-MT concentration ([1]; 100 mg MTC oral (mean of with and without Mesna), 0.83 hr): 0.055 µmol/L
Blood Ox-MT concentration ([1]; 100 mg MTC oral (mean of with and without Mesna), 1.01 hr): 0.064 µmol/L
Blood Ox-MT concentration ([1]; 100 mg MTC oral (mean of with and without Mesna), 1.99 hr): 0.069 µmol/L
Blood Ox-MT concentration ([1]; 100 mg MTC oral (mean of with and without Mesna), 4 hr): 0.038 µmol/L
% of dose excreted in urine at 24 hr ([1]; human, 100 mg MTC, IV): 28.6 % of dose
AUC ([1]; human, 100 mg MTC, IV): 0.134 µmol/min/mL
Cl (clearance) ([1]; human, 100 mg MTC, IV): 3 L/h
Estimated elimination T½: blood (1-4 hr) ([1]; human, 100 mg MTC, IV): 5.25 h
% of dose excreted in urine at 24 hr ([1]; human, 100 mg MTC, Oral): 18.6 % of dose
AUC ([1]; human, 100 mg MTC, Oral): 0.011 µmol/min/mL
Estimated elimination T½: urine (4-24 hr) ([1]; human, 100 mg MTC, Oral): 6.6 h
fraction of total MT excreted in the urine in the L-MB form ([1]; human, did not differ between oral and IV dosing): approximately ⅓
24 hr urinary excretion, L-MT (summary line) ([2]; repeat dose 15 mg/24 hr): 7.2 mg
24 hr urinary excretion, Ox-MT (summary line) ([2]; repeat dose 15 mg/24 hr): 5.8 mg
% of total urinary excretion, L-MT ([2]; repeat dose 15 mg/24 hr): 55.3%
% of total urinary excretion, Ox-MT ([2]; repeat dose 15 mg/24 hr): 44.8%
F (apparent bioavailability), L-MT ([2]; repeat dose 15 mg/24 hr): 0.48
F (apparent bioavailability), Ox-MT ([2]; repeat dose 15 mg/24 hr): 0.39
24-hr urinary excretion, L-MT ([2]; repeat dose 15 mg/24 hr, day 7): 7.2 mg
24-hr urinary excretion, Ox-MT ([2]; repeat dose 15 mg/24 hr, day 7): 6.1 mg
24-hr urinary excretion, L-MT [2, 6]: 8 mg
24-hr urinary excretion, Ox-MT [2, 6]: 5.3 mg
24-hr urinary excretion, L-MT [2, 7]: 6.4 mg
24-hr urinary excretion, Ox-MT [2, 7]: 6.1 mg
24 hr urinary excretion, L-MT (summary line) ([2]; repeat dose 300 mg/24 hr): 69.2 mg
24 hr urinary excretion, Ox-MT (summary line) ([2]; repeat dose 300 mg/24 hr): 43.4 mg
% of total urinary excretion, L-MT ([2]; repeat dose 300 mg/24 hr): 61.5%
% of total urinary excretion, Ox-MT ([2]; repeat dose 300 mg/24 hr): 38.6%
F (apparent bioavailability), L-MT ([2]; repeat dose 300 mg/24 hr): 0.23
F (apparent bioavailability), Ox-MT ([2]; repeat dose 300 mg/24 hr): 0.14
24-hr urinary excretion, L-MT [2, 8]: 75.6 mg
24-hr urinary excretion, Ox-MT [2, 8]: 43.9 mg
24-hr urinary excretion, L-MT [2, 9]: 71.6 mg
24-hr urinary excretion, Ox-MT [2, 9]: 41.1 mg
24-hr urinary excretion, L-MT [2, 10]: 60.4 mg
24-hr urinary excretion, Ox-MT [2, 10]: 45.2 mg
% of total urinary excretion, L-MT ([2]; single dose 25 mg): 15.8%
% of total urinary excretion, Ox-MT ([2]; single dose 25 mg): 84.2%
F (apparent bioavailability), L-MT ([2]; single dose 25 mg): 0.11
F (apparent bioavailability), Ox-MT ([2]; single dose 25 mg): 0.60
F (apparent bioavailability), Total-MT ([2]; single dose 25 mg): 0.71
urinary excretion, L-MT ([2]; single dose 25 mg): 2.8 mg
urinary excretion, Ox-MT ([2]; single dose 25 mg): 14.9 mg
urinary excretion, Total-MT ([2]; single dose 25 mg): 17.7 mg
% of total urinary excretion, L-MT ([2]; single dose 50 mg): 8.8%
% of total urinary excretion, Ox-MT ([2]; single dose 50 mg): 91.2%
F (apparent bioavailability), L-MT ([2]; single dose 50 mg): 0.054
F (apparent bioavailability), Ox-MT ([2]; single dose 50 mg): 0.56
F (apparent bioavailability), Total-MT ([2]; single dose 50 mg): 0.62
urinary excretion, L-MT ([2]; single dose 50 mg): 2.7 mg
urinary excretion, Ox-MT ([2]; single dose 50 mg): 28.1 mg
urinary excretion, Total-MT ([2]; single dose 50 mg): 30.8 mg
% of total urinary excretion, L-MT ([2]; single dose 100 mg): 15.2%
% of total urinary excretion, Ox-MT ([2]; single dose 100 mg): 84.8%
F (apparent bioavailability), L-MT ([2]; single dose 100 mg): 0.060
F (apparent bioavailability), Ox-MT ([2]; single dose 100 mg): 0.34
F (apparent bioavailability), Total-MT ([2]; single dose 100 mg): 0.40
urinary excretion, L-MT ([2]; single dose 100 mg): 6 mg
urinary excretion, Ox-MT ([2]; single dose 100 mg): 33.5 mg
urinary excretion, Total-MT ([2]; single dose 100 mg): 39.5 mg
dose recovered from the major organs [4]: approximately 25%
terminal elimination half-life deduced by DiSanto and Wagner ([5]; from urinary excretion data): 15 to 16.5 h
L-MT urinary excretion rate [5, 11]: 14.01 µg/h
Ox-MT urinary excretion rate [5, 11]: 2.31 µg/h
L-MT urinary excretion rate [5, 12]: 385.06 µg/h
Ox-MT urinary excretion rate [5, 12]: 20.59 µg/h
L-MT urinary excretion rate [5, 13]: 659.14 µg/h
Ox-MT urinary excretion rate [5, 13]: 38.66 µg/h
L-MT urinary excretion rate [5, 14]: 474.29 µg/h
Ox-MT urinary excretion rate [5, 14]: 50.56 µg/h
L-MT urinary excretion rate [5, 15]: 384.43 µg/h
Ox-MT urinary excretion rate [5, 15]: 40.66 µg/h
L-MT urinary excretion rate [5, 16]: 290.50 µg/h
Ox-MT urinary excretion rate [5, 16]: 53.01 µg/h
L-MT urinary excretion rate [5, 17]: 120.29 µg/h
Ox-MT urinary excretion rate [5, 17]: 42.86 µg/h
L-MT urinary excretion rate [5, 18]: 78.72 µg/h
Ox-MT urinary excretion rate [5, 18]: 37.99 µg/h
L-MT urinary excretion rate [5, 19]: 41.87 µg/h
Ox-MT urinary excretion rate [5, 19]: 24.34 µg/h
L-MT urinary excretion rate [5, 20]: 26.77 µg/h
Ox-MT urinary excretion rate [5, 20]: 11.02 µg/h
L-MT urinary excretion rate [5, 21]: 14.11 µg/h
Ox-MT urinary excretion rate [5, 21]: 5.00 µg/h
L-MT urinary excretion rate [5, 22]: 7.88 µg/h
Ox-MT urinary excretion rate [5, 22]: 4.98 µg/h
L-MT urinary excretion rate [5, 23]: 6.39 µg/h
Ox-MT urinary excretion rate [5, 23]: 2.53 µg/h
L-MT urinary excretion rate [5, 24]: 3.09 µg/h
Ox-MT urinary excretion rate [5, 24]: 1.74 µg/h
L-MT urinary excretion rate [5, 25]: 3.02 µg/h
Ox-MT urinary excretion rate [5, 25]: 1.23 µg/h
L-MT urinary excretion rate [5, 26]: 1.91 µg/h
Ox-MT urinary excretion rate [5, 26]: 0.88 µg/h
MRT, Free (Ox-MTC) ([5]; human, 10 mg oral): 24.5000 h
MRT, Leuco (L-MT) ([5]; human, 10 mg oral): 16.8774 h
T½ (distribution), Free (Ox-MTC) ([5]; human, 10 mg oral): 0.5930 h
T½ (distribution), Leuco (L-MT) ([5]; human, 10 mg oral): 1.1530 h
T½ (elimination), Free (Ox-MTC) ([5]; human, 10 mg oral): 15.0364 h
T½ (elimination), Leuco (L-MT) ([5]; human, 10 mg oral): 16.4953 h
Urinary excretion (% of total), Free (Ox-MT) ([5]; human, 10 mg oral): 23% and 22.94%
Urinary excretion (% of total), Leuco (L-MT) ([5]; human, 10 mg oral): 77% and 77.06%
total urinary recovery ([5]; human, 10 mg oral): 65 % of dose
AUC, Leuco (L-MT) [5, 27]: 4981.55 µg·h
CI, Free (Ox-MTC) [5, 27]: 6.7420 L/h
CI, Leuco (L-MT) [5, 27]: 2.0074 L/h
F (calculated bioavailability), Free (Ox-MTC) [5, 27]: 0.1483
F (calculated bioavailability), Leuco (L-MT) [5, 27]: 0.4982
Vc, Free (Ox-MTC) [5, 27]: 4.4188 L
Vc, Leuco (L-MT) [5, 27]: 4.1152 L
K12, Free (Ox-MTC) [5, 28]: 0.7506
K12, Leuco (L-MT) [5, 28]: 0.2962
K21, Free (Ox-MTC) [5, 28]: 0.2381
Kel (terminal elimination rate constant), Free (Ox-MTC) [5, 28]: 0.2263
Kel (terminal elimination rate constant), Leuco (L-MT) [5, 28]: 0.2430
Tlag, Free (Ox-MTC) [5, 28]: 0.2078 h
Tlag, Leuco (L-MT) [5, 28]: 0.2381 h
VcF (Vc × F), Leuco (L-MT) [5, 28]: 8.2607 L
terminal elimination half-life (Ox-MT and L-MT comparable) [5, 28]: ~16 h
corrected apparent central volume (Ox-MT and L-MT comparable) ([5]; in vivo, po): 4 L
